Measured values taken from paper PMC8459971, “Evaluation of the hepatotoxicity of the novel GPR40 (FFAR1) agonist CPL207280 in the rat and monkey” (PLoS ONE, 2021).
“And” between values parts separate entries of the source, which are not always exact repeats. Equal values may be shown once. Read-outs that look alike come from different tables or passages of the source.

Tests used:
NTCP = target: T1, NTCP (Homo sapiens, UniProt Q14973); assay: Uptake transporter inhibition assay, NTCP; format: cell-based; details: for Accumulation (counts per minute; CPM) HEK293-NTCP / Accumulation (counts per minute; CPM) HEK293FT-MOCK: NTCP; for IC50: transformed HEK cells, up to 300μM, n = 2
T1 construct: expressed in transfected cells; host or cells: HEK cells
T1 sequence (Q14973 1-349): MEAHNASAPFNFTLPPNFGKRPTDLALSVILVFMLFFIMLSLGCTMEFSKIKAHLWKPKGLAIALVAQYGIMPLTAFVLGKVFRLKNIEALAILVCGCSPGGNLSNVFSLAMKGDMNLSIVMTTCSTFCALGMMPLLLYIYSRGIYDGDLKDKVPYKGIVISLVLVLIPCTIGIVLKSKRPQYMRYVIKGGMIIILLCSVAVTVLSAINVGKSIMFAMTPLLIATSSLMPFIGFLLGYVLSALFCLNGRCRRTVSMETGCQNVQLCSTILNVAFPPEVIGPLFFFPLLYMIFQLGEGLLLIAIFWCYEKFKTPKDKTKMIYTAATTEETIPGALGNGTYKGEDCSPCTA
Experimental: For the uptake transporter inhibition assay, cells were washed twice with 100 μL of the appropriate buffer (HK, pH 7.4) for OATP1B1, followed by HBSS (pH 7.4) for (NTCP, OAT1, OAT2v1, OATP1A2, and OATP1B3). Uptake experiments were carried out at 37 ± 1°C in 50 μL of the respective buffer containing the probe substrate and the compound or solvent.

OATP1B3 = target: T2, OATP1B3 (Homo sapiens, UniProt Q9NPD5); assay: Uptake transporter inhibition assay, OATP1B3
T2 sequence (Q9NPD5 1-702): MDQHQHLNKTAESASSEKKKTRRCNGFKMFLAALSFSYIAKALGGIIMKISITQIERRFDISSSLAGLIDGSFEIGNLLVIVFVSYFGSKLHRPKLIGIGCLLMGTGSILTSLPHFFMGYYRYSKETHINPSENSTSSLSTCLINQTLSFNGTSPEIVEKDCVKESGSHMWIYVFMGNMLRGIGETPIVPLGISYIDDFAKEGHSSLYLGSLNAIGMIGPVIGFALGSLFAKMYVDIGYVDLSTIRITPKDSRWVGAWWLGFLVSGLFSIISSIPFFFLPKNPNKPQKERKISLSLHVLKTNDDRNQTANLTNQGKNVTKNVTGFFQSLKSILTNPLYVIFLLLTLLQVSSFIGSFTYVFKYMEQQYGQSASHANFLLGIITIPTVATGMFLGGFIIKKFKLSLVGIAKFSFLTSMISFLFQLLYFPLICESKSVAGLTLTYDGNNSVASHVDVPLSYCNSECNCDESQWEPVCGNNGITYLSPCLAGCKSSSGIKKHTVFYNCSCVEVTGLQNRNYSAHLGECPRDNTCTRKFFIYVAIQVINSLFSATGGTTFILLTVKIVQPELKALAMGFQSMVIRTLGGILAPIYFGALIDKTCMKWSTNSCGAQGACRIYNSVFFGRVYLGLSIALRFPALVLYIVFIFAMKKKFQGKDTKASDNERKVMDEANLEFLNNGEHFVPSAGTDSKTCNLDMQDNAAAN
Experimental: (§1) For the uptake transporter inhibition assay, cells were washed twice with 100 μL of the appropriate buffer (HK, pH 7.4) for OATP1B1, followed by HBSS (pH 7.4) for (NTCP, OAT1, OAT2v1, OATP1A2, and OATP1B3). Uptake experiments were carried out at 37 ± 1°C in 50 μL of the respective buffer containing the probe substrate and the compound or solvent. […] After the experiment, cells were washed twice with 100 μL of cold appropriate buffer and lysed with 50 μL of 0.1 M NaOH. Radiolabeled probe substrate transport was determined by measuring an aliquot (35 μL) from each well for liquid scintillation counting.

[1] = Stability in microsomes, rat; format: in vitro ADME; details: for half-life at 3 μM / microsomal CLint at 3 μM: Rat (Sprague Dawley) microsomes, mean n = 2; for average DEG [%]: rat microsomes, with cofactors
Experimental: The final incubation volume was 500 μL. Two control compounds (verapamil and donepezil) were included for each microsomal species, along with the appropriate vehicle control. The reactions were terminated by transferring 50 μL of incubate to 100 μL methanol containing an internal standard (metoprolol) at appropriate time points (0, 10, 20, 40, 60, and 120 min for the test compound and 0, 5, 10, 20, 40, and 60 min for the control compounds). The termination plates were centrifuged at 4000 x g at 4°C for 30 min to precipitate the protein. The supernatants were then collected for analysis, and LC-MS/MS was used for detection purposes. The system consisted of an Acquity™ Binary Solvent Manager, Acquity™ 4-position heated column manager, 2777 Ultra High Pressure Autosampler, and a Xevo-TQ MS triple quadrupole mass spectrometer (Waters Ltd., Herts, UK). This process was carried out twice.

OATP1B1 = target: T3, OATP1B1 (Homo sapiens, UniProt Q9Y6L6); assay: Uptake transporter inhibition assay, OATP1B1
T3 sequence (Q9Y6L6 1-691): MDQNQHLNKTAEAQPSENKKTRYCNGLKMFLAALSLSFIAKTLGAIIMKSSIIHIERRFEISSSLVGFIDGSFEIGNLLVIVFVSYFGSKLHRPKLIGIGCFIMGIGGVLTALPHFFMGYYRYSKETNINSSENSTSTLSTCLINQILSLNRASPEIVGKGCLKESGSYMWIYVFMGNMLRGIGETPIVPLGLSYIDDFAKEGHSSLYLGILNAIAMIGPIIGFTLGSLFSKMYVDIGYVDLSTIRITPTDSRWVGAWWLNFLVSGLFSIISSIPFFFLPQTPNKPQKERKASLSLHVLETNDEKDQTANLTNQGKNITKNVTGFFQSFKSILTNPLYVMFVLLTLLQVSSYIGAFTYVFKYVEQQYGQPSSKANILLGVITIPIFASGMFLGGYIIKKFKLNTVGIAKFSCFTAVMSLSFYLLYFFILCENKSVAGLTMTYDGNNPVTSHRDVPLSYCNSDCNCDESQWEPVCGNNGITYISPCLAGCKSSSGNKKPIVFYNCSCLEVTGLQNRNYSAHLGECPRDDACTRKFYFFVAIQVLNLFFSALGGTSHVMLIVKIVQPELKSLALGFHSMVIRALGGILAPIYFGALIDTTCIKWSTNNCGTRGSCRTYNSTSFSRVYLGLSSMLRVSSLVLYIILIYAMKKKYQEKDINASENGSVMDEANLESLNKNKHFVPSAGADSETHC
Experimental: as §1

Cc1cc(OCCCS(C)(=O)=O)cc(C)c1-c1cccc(COc2ccc3c(c2)OC[C@H]3CC(=O)O)c1 [TAK-875, fasiglifam, reference compound]
Accumulation (counts per minute; CPM) HEK293-NTCP (NTCP; conc 0.10 µM): 4946 CPM and 5522 CPM
Accumulation (counts per minute; CPM) HEK293FT-MOCK (NTCP; conc 0.10 µM): 31 CPM and 28 CPM
Accumulation (counts per minute; CPM) HEK293-NTCP (NTCP; conc 0.30 µM): 4754 CPM and 4976 CPM
Accumulation (counts per minute; CPM) HEK293FT-MOCK (NTCP; conc 0.30 µM): 28 CPM and 36 CPM
Accumulation (counts per minute; CPM) HEK293-NTCP (NTCP; conc 1.00 µM): 4452 CPM and 4849 CPM
Accumulation (counts per minute; CPM) HEK293FT-MOCK (NTCP; conc 1.00 µM): 23 CPM and 31 CPM
Accumulation (counts per minute; CPM) HEK293-NTCP (NTCP; conc 3.00 µM): 4304 CPM and 4641 CPM
Accumulation (counts per minute; CPM) HEK293FT-MOCK (NTCP; conc 3.00 µM): 25 CPM and 22 CPM
Accumulation (counts per minute; CPM) HEK293-NTCP (NTCP; conc 10.00 µM): 3509 CPM and 4053 CPM
Accumulation (counts per minute; CPM) HEK293FT-MOCK (NTCP; conc 10.00 µM): 28 CPM and 26 CPM
Accumulation (counts per minute; CPM) HEK293-NTCP (NTCP; conc 30.00 µM): 2661 CPM and 2656 CPM
Accumulation (counts per minute; CPM) HEK293FT-MOCK (NTCP; conc 30.00 µM): 25 CPM and 30 CPM
Accumulation (counts per minute; CPM) HEK293-NTCP (NTCP; conc 100.00 µM): 1608 CPM and 1569 CPM
Accumulation (counts per minute; CPM) HEK293FT-MOCK (NTCP; conc 100.00 µM): 25 CPM and 33 CPM
IC50 (NTCP): 53.1 µM
IC50 (OATP1B3): 3.44 µM
half-life at 3 μM [1]: 1.98 h
microsomal CLint at 3 μM [1]: 11.6 µL/min/mg
average DEG [%] ([1]; 0 min): 100.0%
average DEG [%] ([1]; 20 min): 81.3%
average DEG [%] ([1]; 40 min): 79.5%
average DEG [%] ([1]; 60 min): 68.4%
IC50 (OATP1B1): 0.49 µM

CC#C[C@@H](CC(=O)O)c1ccc(OCC(C)=C(C)C)cc1 [CPL207280]
Accumulation (counts per minute; CPM) HEK293-NTCP (NTCP; conc 0.10 µM): 4707 CPM and 4966 CPM
Accumulation (counts per minute; CPM) HEK293FT-MOCK (NTCP; conc 0.10 µM): 25 CPM
Accumulation (counts per minute; CPM) HEK293-NTCP (NTCP; conc 1.00 µM): 4654 CPM and 4992 CPM
Accumulation (counts per minute; CPM) HEK293FT-MOCK (NTCP; conc 1.00 µM): 29 CPM and 25 CPM
Accumulation (counts per minute; CPM) HEK293-NTCP (NTCP; conc 3.00 µM): 4021 CPM and 4291 CPM
Accumulation (counts per minute; CPM) HEK293FT-MOCK (NTCP; conc 3.00 µM): 19 CPM and 23 CPM
Accumulation (counts per minute; CPM) HEK293-NTCP (NTCP; conc 10.00 µM): 3614 CPM and 3535 CPM
Accumulation (counts per minute; CPM) HEK293FT-MOCK (NTCP; conc 10.00 µM): 24 CPM and 36 CPM
Accumulation (counts per minute; CPM) HEK293-NTCP (NTCP; conc 30.00 µM): 2611 CPM and 3022 CPM
Accumulation (counts per minute; CPM) HEK293FT-MOCK (NTCP; conc 30.00 µM): 21 CPM
Accumulation (counts per minute; CPM) HEK293-NTCP (NTCP; conc 100.00 µM): 1462 CPM and 1666 CPM
Accumulation (counts per minute; CPM) HEK293FT-MOCK (NTCP; conc 100.00 µM): 25 CPM and 27 CPM
Accumulation (counts per minute; CPM) HEK293-NTCP (NTCP; conc 300.00 µM): 771 CPM and 846 CPM
Accumulation (counts per minute; CPM) HEK293FT-MOCK (NTCP; conc 300.00 µM): 29 CPM and 23 CPM
IC50 (NTCP): 46.8 µM
IC50 (OATP1B3; human, transformed HEK cells expressing OATP1B3, pH 7.4): 42.9 µM
half-life at 3 μM [1]: 1.15 h
microsomal CLint at 3 μM [1]: 21.1 µL/min/mg
average DEG [%] ([1]; 0 min): 100.0%
average DEG [%] ([1]; 20 min): 80.9%
average DEG [%] ([1]; 40 min): 64.9%
average DEG [%] ([1]; 60 min): 55.0%
IC50 (OATP1B1): 17.9 µM
fold less inhibitory potency than TAK-875, OATP1B1 (OATP1B1): at least 10 fold
